Experimental data published in US11753407B2, “Compounds for treating spinal muscular atrophy” (PTC Therapeutics, Inc., priority 2012, dated 2023).

Legend:
[1] = test system: SMN2 minigene mRNA (SMN2-A minigene) in HEK293H cells; assay: SMN2 minigene mRNA splicing RT-qPCR assay in cultured cells; format: cell-based, human; settings: Homo sapiens, HEK293-H; concentration increasing full length SMN2 mRNA 1.5-fold relative to vehicle-treated cells; HEK293H cells with SMN2-A minigene, 24 hours, 7-point concentration data; read-out: EC1.5x for production of full length SMN2 mRNA
Method in brief: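 Cells are seeded, left to attach 4-6 h, then dosed with test compound across seven concentrations and incubated 24 h. Lysates undergo RT-qPCR with primers/probe specific to the exon 7-containing minigene transcript, co-amplified with GAPDH. Fold change over vehicle is calculated, and EC1.5× marks the 1.5-fold point.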

[2] = test system: Smn protein in SMA patient fibroblast cells (GM03813); assay: Smn protein assay in cultured cells (SMN HTRF); format: cell-based, human; settings: SMA patient fibroblast cells, 48 hours; for EC1.5x for Smn protein expression: 7-point concentration curve, SMN HTRF, concentration producing 1.5 times Smn protein vs DMSO vehicle control; for maximum fold (Fold) increase of Smn protein: 7-point concentration data, fold relative to vehicle control
Method in brief: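 Patient-derived SMA fibroblasts are plated, given compound for 48 h, then lysed in RIPA buffer with protease inhibitors. Lysate Smn is detected by an anti-SMN d2/kryptate HTRF pair incubated overnight. The normalized ΔF is divided by the vehicle ΔF to give fold change, from which EC1.5× and maximum fold are taken.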

Row | melting point [°C] | Compound | EC (1.5-fold increase) [1] [µM] | EC1.5x for Smn protein expression [2] | maximum fold (Fold) increase of Smn protein [2]
1 | 245 to 248 | O=c1cc(-c2ccc(O)c(OC(F)(F)F)c2)nc2ccc(N3CCNCC3)cn12 [Cpd 82, 2-[4-hydroxy-3-(trifluoromethoxy)phenyl]-7-(piperazin-1-yl)-4H-pyrido[1,2-a]pyrimidin-4-one] | 1 to 3 | ** (an EC1.5× between >1 μM and ≤3 μM is indicated by two stars (**)) | ***** (a fold increase >1.65 is indicated by five stars (*****))
2 | 199 to 202 | COc1ccc(-c2cc(=O)n3cc(N4CCNCC4)ccc3c2C#N)cc1OC [Cpd 85, 2-(3,4-dimethoxyphenyl)-4-oxo-7-(piperazin-1-yl)-4H-quinolizine-1-carbonitrile] | 1 to 3 | * (An EC1.5× for Smn protein expression between >3 μM and ≤10 μM is indicated by one star (*)) | *** (a fold increase between >1.35 and ≤1.5 is indicated by three stars (***))
3 | 243 to 245 | COc1ccc(-c2cc(=O)n3cc(N4CCN[C@@H](C)C4)ccc3c2)cc1OC [Cpd 91, 2-(3,4-dimethoxyphenyl)-7-[(3S)-3-methylpiperazin-1-yl]-4H-quinolizin-4-one] | 1 to 3 | – | ** (a fold increase between >1.2 and ≤1.35 is indicated by two stars (**))
4 | 201 to 208 | O=c1cc(-c2cncc(F)c2)nc2ccc(N3CCNCC3)cn12 [Cpd 92, 2-(5-fluoropyridin-3-yl)-7-(piperazin-1-yl)-4H-pyrido[1,2-a]pyrimidin-4-one] | 1 to 3 | – | ** (a fold increase between >1.2 and ≤1.35 is indicated by two stars (**))
5 | 266 to 272 | O=c1cc(-c2ccc3[nH]ccc3c2)nc2ccc(N3CCNCC3)cn12 [Cpd 98, 2-(1H-indol-5-yl)-7-(piperazin-1-yl)-4H-pyrido[1,2-a]pyrimidin-4-one] | 1 to 3 | – | *** (a fold increase between >1.35 and ≤1.5 is indicated by three stars (***))
6 | 170 to 172 | COc1ccc(-c2cc(=O)n3cc(N4CCNCC4)ccc3c2)cc1OC [Cpd 106, 2-(3,4-dimethoxyphenyl)-7-(piperazin-1-yl)-4H-quinolizin-4-one] | 0.3 to 1 | ** (an EC1.5× between >1 μM and ≤3 μM is indicated by two stars (**)) | **** (a fold increase between >1.5 and ≤1.65 is indicated by four stars (****))
7 | 258 to 270 | O=c1cc(-c2ccn3ccnc3c2)nc2ccc(N3CCNCC3)cn12 [Cpd 107, 2-(imidazo[1,2-a]pyridin-7-yl)-7-(piperazin-1-yl)-4H-pyrido[1,2-a]pyrimidin-4-one] | 0.3 to 1 | – | ** (a fold increase between >1.2 and ≤1.35 is indicated by two stars (**))
8 | 259 to 267 | Cc1cn2cc(-c3cc(=O)n4cc(N5CCNCC5)ccc4n3)ccc2n1 [Cpd 109, 2-(2-methylimidazo[1,2-a]pyridin-6-yl)-7-(piperazin-1-yl)-4H-pyrido[1,2-a]pyrimidin-4-one] | < 0.1 | **** (an EC1.5x≤0.3 μM is indicated by four stars (****)) | **** (a fold increase between >1.5 and ≤1.65 is indicated by four stars (****))
9 | 252 to 255 | O=c1cc(-c2cnc3[nH]ccc3c2)nc2ccc(N3CCNCC3)cn12 [Cpd 128, 7-(piperazin-1-yl)-2-(1H-pyrrolo[2,3-b]pyridin-5-yl)-4H-pyrido[1,2-a]pyrimidin-4-one] | 0.3 to 1 | – | *** (a fold increase between >1.35 and ≤1.5 is indicated by three stars (***))
10 | 214 to 217 | COc1ccc(-c2cc(=O)n3cc(C4CCNCC4)ccc3n2)cc1OC [Cpd 144, 2-(3,4-dimethoxyphenyl)-7-(piperidin-4-yl)-4H-pyrido[1,2-a]pyrimidin-4-one] | < 0.1 | **** (an EC1.5x≤0.3 μM is indicated by four stars (****)) | **** (a fold increase between >1.5 and ≤1.65 is indicated by four stars (****))
11 | 180 to 186 | CCOc1ccc(-c2cc(=O)n3cc(N4CCNCC4)ccc3n2)cc1F [Cpd 153, 2-(4-ethoxy-3-fluorophenyl)-7-(piperazin-1-yl)-4H-pyrido[1,2-a]pyrimidin-4-one] | 0.3 to 1 | – | ** (a fold increase between >1.2 and ≤1.35 is indicated by two stars (**))
12 | 142 to 147 | Cc1csc(-c2cc(=O)n3cc(N4CCNCC4)ccc3n2)n1 [Cpd 163, 2-(4-methyl-1,3-thiazol-2-yl)-7-(piperazin-1-yl)-4H-pyrido[1,2-a]pyrimidin-4-one] | 1 to 3 | – | *** (a fold increase between >1.35 and ≤1.5 is indicated by three stars (***))
13 | 181 to 183 | COc1ccc(-c2cc(=O)n3cc(C4CCN(C)CC4)ccc3n2)cc1OC [Cpd 164, 2-(3,4-dimethoxyphenyl)-7-(1-methylpiperidin-4-yl)-4H-pyrido[1,2-a]pyrimidin-4-one] | 0.3 to 1 | ** (an EC1.5× between >1 μM and ≤3 μM is indicated by two stars (**)) | **** (a fold increase between >1.5 and ≤1.65 is indicated by four stars (****))
14 | 178 to 183 | Cc1nc2ccc(-c3cc(=O)n4cc(N5CCN(C)CC5)ccc4n3)cc2o1 [Cpd 171, 2-(2-methyl-1,3-benzoxazol-6-yl)-7-(4-methylpiperazin-1-yl)-4H-pyrido[1,2-a]pyrimidin-4-one] | < 0.1 | **** (an EC1.5x≤0.3 μM is indicated by four stars (****)) | ***** (a fold increase >1.65 is indicated by five stars (*****))
15 | 204 to 206 | Cc1cn(-c2cc(=O)n3cc(N4CCNCC4)ccc3n2)cn1 [Cpd 179, 2-(4-methyl-1H-imidazol-1-yl)-7-(piperazin-1-yl)-4H-pyrido[1,2-a]pyrimidin-4-one] | 0.3 to 1 | *** (an EC1.5× between >0.3 μM and ≤1 μM is indicated by three stars (***)) | ***** (a fold increase >1.65 is indicated by five stars (*****))
16 | 166 to 170 | COc1ncc(-c2cc(=O)n3cc(N4CCNCC4)ccc3n2)cc1F [Cpd 182, 2-(5-fluoro-6-methoxypyridin-3-yl)-7-(piperazin-1-yl)-4H-pyrido[1,2-a]pyrimidin-4-one] | 0.3 to 1 | *** (an EC1.5× between >0.3 μM and ≤1 μM is indicated by three stars (***)) | **** (a fold increase between >1.5 and ≤1.65 is indicated by four stars (****))
17 | 168 to 170 | C[C@H]1CN(c2ccc3nc(-c4cnn(C)c4)cc(=O)n3c2)CCN1 [Cpd 191, 7-[(3S)-3-methylpiperazin-1-yl]-2-(1-methyl-1H-pyrazol-4-yl)-4H-pyrido[1,2-a]pyrimidin-4-one] | 1 to 3 | ** (an EC1.5× between >1 μM and ≤3 μM is indicated by two stars (**)) | **** (a fold increase between >1.5 and ≤1.65 is indicated by four stars (****))
18 | 282 to 288 | Cc1cn2cc(-c3cc(=O)n4cc(N5CCNCC5)ccc4n3)cc(F)c2n1 [Cpd 209, 2-(8-fluoro-2-methylimidazo[1,2-a]pyridin-6-yl)-7-(piperazin-1-yl)-4H-pyrido[1,2-a]pyrimidin-4-one] | < 0.1 | **** (an EC1.5x≤0.3 μM is indicated by four stars (****)) | **** (a fold increase between >1.5 and ≤1.65 is indicated by four stars (****))
19 | 202 to 206 | COc1ccc(-c2ccc3nc(N4CCNCC4)cc(=O)n3c2)cc1F [Cpd 220, 7-(3-fluoro-4-methoxyphenyl)-2-(piperazin-1-yl)-4H-pyrido[1,2-a]pyrimidin-4-one] | 0.3 to 1 | – | ** (a fold increase between >1.2 and ≤1.35 is indicated by two stars (**))

Row | Compound | melting point [°C] | EC (1.5-fold increase) [1] [µM] | EC1.5x for Smn protein expression [2] | maximum fold (Fold) increase of Smn protein [2]
20 | COc1ccc(-c2cc(=O)n3cc(C4=CCNCC4)ccc3n2)cc1OC [Cpd 143, 2-(3,4-dimethoxyphenyl)-7-(1,2,3,6-tetrahydropyridin-4-yl)-4H-pyrido[1,2-a]pyrimidin-4-one] | 196 to 198 | < 0.1 | **** (an EC1.5x≤0.3 μM is indicated by four stars (****)) | ***** (a fold increase >1.65 is indicated by five stars (*****))
21 | COc1ccc(-c2cc(=O)n3cc(C4=CCN(C)CC4)ccc3n2)cc1OC [Cpd 188, 2-(3,4-dimethoxyphenyl)-7-(1-methyl-1,2,3,6-tetrahydropyridin-4-yl)-4H-pyrido[1,2-a]pyrimidin-4-one] | 165 to 168 | 0.1 to 0.3 | *** (an EC1.5× between >0.3 μM and ≤1 μM is indicated by three stars (***)) | ***** (a fold increase >1.65 is indicated by five stars (*****))
